# Earlier results in article PMC13151045, “Accounting for Differences in Plasma Protein Binding between Fish and Humans for Supporting Environmental Risk Assessment of Pharmaceuticals Using the Fish Plasma Model” (Environmental Science & Technology, 2026).
# Details: minimum reported human therapeutic plasma concentration; ref footnote e of Table 4
row,SMILES,Human C max
1,CC(C)NCC(O)COc1cccc2ccccc12 (centres unmarked) [Propranolol],20 ng/mL
2,CC1Cc2ccccc2N1NC(=O)c1ccc(Cl)c(S(N)(=O)=O)c1 (centres unmarked) [Indapamide],55.8 ng/mL
